Measured values taken from patent publication US7741342B2, “Water-soluble thalidomine derivatives” (priority 2003, dated 2010).
Read-outs that look alike come from different tables or passages of the source.

Columns and labels:
[1] = buffer
[2] = aqueous solution stability; details: hydrochloride salt

Structure (SMILES) | aqueous solution stability t1/2 [1] [h] | aqueous solution stability t1/2 [2] [h]
CN(C)CC(=O)OCN1C(=O)CCC(N2C(=O)c3ccccc3C2=O)C1=O.Cl (centres unmarked) [Example 5, Dimethylaminoacetic acid 2-(1-(hydroxymethyl)-2,6-dioxopiperidin-3-yl)isoindoline-1,3-dione ester hydrochloride salt] | > 4 | 
CCN(CC)CC(=O)N[C@H](C(=O)OCN1C(=O)CCC(N2C(=O)c3ccccc3C2=O)C1=O)C(C)C.Cl (stereo partly drawn) [Example 1, (S)-2-(diethylaminoacetamido)-3-methyl butyric acid 2-(1-(hydroxymethyl)-2,6-dioxopiperidin-3-yl)isoindoline-1,3-dione ester hydrochloride] |  | > 8
CCN(CC)CC(=O)OCN1C(=O)CCC(N2C(=O)c3ccccc3C2=O)C1=O.Cl (centres unmarked) [Example 4, Diethylaminoacetic acid 2-(1-(hydroxymethyl)-2,6-dioxopiperidin-3-yl)isoindoline-1,3-dione ester hydrochloride] | > 8 | 
CC(C)[C@H](NC(=O)CN1CCCCC1)C(=O)OCN1C(=O)CCC(N2C(=O)c3ccccc3C2=O)C1=O.Cl (stereo partly drawn) [Example 3, (S)-2-(1-piperidinylacetamido)-3-methyl butyric acid 2-(1-(hydroxymethyl)-2,6-dioxopiperidin-3-yl)isoindoline-1,3-dione ester hydrochloride] |  | > 8
CC(C)[C@H](NC(=O)CN(C)C)C(=O)OCN1C(=O)CCC(N2C(=O)c3ccccc3C2=O)C1=O.Cl (stereo partly drawn) [Example 2, (S)-2-(dimethylaminoacetamido)-3-methyl butyric acid 2-(1-(hydroxymethyl)-2,6-dioxopiperidin-3-yl)isoindoline-1,3-dione ester hydrochloride] |  | > 8
